{"source": "paper PMC4719581", "about": "“Tankyrase inhibition impairs directional migration and invasion of lung cancer cells by affecting microtubule dynamics and polarity signals” (BMC Biology, 2016)", "biological_target": "T1, TNKS2 (tankyrase 2) (Homo sapiens, UniProt Q9H2K2)", "T1 construct": "recombinant His-tagged human TNKS2 poly(adenosine diphosphate)-ribose polymerase (PARP) domain, baculovirus-expressed", "T1 sequence (Q9H2K2 946-1162 limits assumed)": "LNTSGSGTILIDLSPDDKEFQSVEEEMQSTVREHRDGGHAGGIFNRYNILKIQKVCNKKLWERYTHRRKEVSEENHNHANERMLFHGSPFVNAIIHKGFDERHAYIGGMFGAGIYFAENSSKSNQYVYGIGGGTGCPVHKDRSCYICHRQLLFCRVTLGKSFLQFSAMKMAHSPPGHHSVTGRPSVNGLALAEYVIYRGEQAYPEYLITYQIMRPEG", "assay": "auto-PARsylation assay with purified PARP domain on Ni2+-coated Flashplate, radioactive scintillation readout", "format": "biochemical", "data": [{"compound": "CCc1cc2ccc(C(C)(C#N)Cc3cccc(C#N)c3)cc2[nH]c1=O", "note": "(single isomer, unassigned) [JNJ-BJ, (R or S)-3-[2-cyano-2-(3-ethyl-2-oxo-1H-quinolin-7-yl)propyl]benzonitrile]", "values": [{"measurement": "IC50", "result": 130, "unit": "nM"}]}]}
